Columns and labels:
KKAy mice = experiment: In vivo study of the lowering effect on plasma glucose and plasma insulin in KKAy mouse model; conditions: for levels of plasma glucose and plasma insulin: either 100 mg/kg or 50 mg/kg; for Plasma glucose lowering effect / Plasma insulin lowering effect: oral, 3 weeks, after fasting
11β-HSD1 = 11β-HSD1 (Homo sapiens (Human), UniProt P28845); experiment: 11β-HSD1 inhibiting activity, HTRF assay with human microsomal fractions; format: biochemical; conditions: 160 nM cortisone, 200 μM NADPH, 2 h at 37° C.
Description: The inhibiting activity of 11β-HSD1 derived from microsomal fractions was measured using the HTRF assay (62CO2PEB, Cisbio). […] Europium (Eu^3+) cryptate and XL665-conjugated cortisol were then added to each well and incubated for an additional 2 h at room temperature. The Cortisol concentration was calculated u sing a calibration curve. The IC50 values were calculated from dose response curves using GraphPad Prism software.

11β-HSD1, sequence (P28845 whole entry): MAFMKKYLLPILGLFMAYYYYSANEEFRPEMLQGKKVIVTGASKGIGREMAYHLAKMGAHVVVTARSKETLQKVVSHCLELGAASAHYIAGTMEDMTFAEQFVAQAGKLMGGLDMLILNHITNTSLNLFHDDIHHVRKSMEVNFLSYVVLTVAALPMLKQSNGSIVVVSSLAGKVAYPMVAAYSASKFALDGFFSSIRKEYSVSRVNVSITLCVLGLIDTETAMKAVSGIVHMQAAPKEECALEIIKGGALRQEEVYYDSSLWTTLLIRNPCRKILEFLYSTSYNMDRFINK

CC(C)(NS(=O)(=O)c1c(F)cccc1F)C(=O)NC1C2CC3CC1CC(C(N)=O)(C3)C2 (stereo not shown) [Example 84, E-4-[2-(2,6-difluoro-benzenesulfonylamino)-2-methylpropanamido]adamantan-1-carboxylic acid amide]
levels of plasma glucose and plasma insulin (KKAy mice): significantly reduced
Plasma glucose lowering effect (KKAy mice; 50 mg/kg): 19%
Plasma insulin lowering effect (KKAy mice; 50 mg/kg): 43%

NC(=O)C12CC3CC(C1)C(NC(=O)c1cccc(NS(=O)(=O)c4cc(Cl)cc(Cl)c4)c1)C(C3)C2 (stereo not shown) [Example 119, E-4-[3-(3,5-dichloro-benzenesulfonylamino)benzamido]-adamantan-1-carboxylic acid amide]
levels of plasma glucose and plasma insulin (KKAy mice): significantly reduced
Plasma glucose lowering effect (KKAy mice; 50 mg/kg): 47%
Plasma insulin lowering effect (KKAy mice; 50 mg/kg): 52%

CN(CC1(C(=O)NC2C3CC4CC2CC(C(N)=O)(C4)C3)CC1)S(=O)(=O)c1ccccc1F (stereo not shown) [Example 22, E-4-[1-((2-fluoro-N-methyl-benzenesulfonylamino)methyl)cyclopropanecarboxamido]-adamantan-1-carboxylic acid amide]
levels of plasma glucose and plasma insulin (KKAy mice): significantly reduced

Cc1c(Cl)cccc1S(=O)(=O)NCC(C)(C)C(=O)NC1C2CC3CC1CC(C(N)=O)(C3)C2 (stereo not shown) [Example 70, E-4-[3-(3-chloro-2-methyl-benzenesulfonylamino)-2,2-dimethylpropanamido]adamantan-1-carboxylic acid amide]
IC50 (11β-HSD1): 6.2 nM

NC(=O)C12CC3CC(C1)C(NC(=O)C1(CNS(=O)(=O)c4ccccc4F)CC1)C(C3)C2 (stereo not shown) [Example 3, E-4-[1-((2-fluoro-benzenesulfonylamino)methyl)cyclopropanecarboxamido]-adamantan-1-carboxylic acid amide]
levels of plasma glucose and plasma insulin (KKAy mice): significantly reduced

CC(C)(NS(=O)(=O)c1ccccc1F)C(=O)NC1C2CC3CC1CC(C(N)=O)(C3)C2 (stereo not shown) [Example 71, E-4-[2-(2-fluoro-benzenesulfonylamino)-2-methylpropanamido]-adamantan-1-carboxylic acid amide]
IC50 (11β-HSD1): 0.6 nM
levels of plasma glucose and plasma insulin (KKAy mice): significantly reduced
Plasma glucose lowering effect (KKAy mice; 100 mg/kg): 27%
Plasma insulin lowering effect (KKAy mice; 100 mg/kg): 40%

NC(=O)C12CC3CC(C1)C(NC(=O)c1cccc(NS(=O)(=O)c4c(F)cccc4F)c1)C(C3)C2 (stereo not shown) [Example 123, E-4-[3-(2,6-difluoro-benzenesulfonylamino)-benzamido]-adamantan-1-carboxylic acid amide]
IC50 (11β-HSD1): 12.8 nM

NC(=O)C12CC3CC(C1)C(NC(=O)C1(CNS(=O)(=O)c4cc(Cl)cc(Cl)c4)CC1)C(C3)C2 (stereo not shown) [Example 18]
IC50 (11β-HSD1): 23.9 nM

Cc1n[nH]c(C)c1S(=O)(=O)Nc1cccc(C(=O)NC2C3CC4CC2CC(C(N)=O)(C4)C3)c1 (stereo not shown) [Example 108, E-4-[3-(3,5-dimethyl-1H-pyrazole-4-sulfonylamino)-benzamido]-adamantan-1-carboxylic acid amide]
IC50 (11β-HSD1): 51.2 nM

NC(=O)C12CC3CC(C1)C(NC(=O)C1(NS(=O)(=O)c4cccs4)CC1)C(C3)C2 (stereo not shown) [Example 48, E-4-[1-(thiophen-2-sulfonylamino)cyclopropanecarboxamido]-adamantan-1-carboxylic acid amide]
IC50 (11β-HSD1): 62.8 nM

NC(=O)C12CC3CC(C1)C(NC(=O)c1cccc(NS(=O)(=O)C4CC4)c1)C(C3)C2 (stereo not shown) [Example 138, E-4-(3-(cyclopropanesulfonamido)benzamido)adamantan-1-carboxylic acid amide]
IC50 (11β-HSD1): 62.1 nM

NC(=O)C12CC3CC(C1)C(NC(=O)C1(NS(=O)(=O)c4ccc(F)cc4)CC1)C(C3)C2 (stereo not shown) [Example 42, E-4-[1-(4-fluoro-benzenesulfonylamino)cyclopropanecarboxamido]-adamantan-1-carboxylic acid amide]
IC50 (11β-HSD1): 6.4 nM

NC(=O)C12CC3CC(C1)C(NC(=O)C1(NS(=O)(=O)c4ccc(F)c(F)c4F)CC1)C(C3)C2 (stereo not shown) [Example 47, E-4-[1-(2,3,4-trifluoro-benzenesulfonylamino)cyclopropanecarboxamido]-adamantan-1-carboxylic acid amide]
IC50 (11β-HSD1): 495 nM

NC(=O)C12CC3CC(C1)C(NC(=O)c1cccc(NS(=O)(=O)c4cc(F)cc(Cl)c4)c1)C(C3)C2 (stereo not shown) [Example 118, E-4-[3-(3-chloro-5-fluoro-benzenesulfonylamino)-benzamido]-adamantan-1-carboxylic acid amide]
IC50 (11β-HSD1): 20.4 nM

Cc1cc(S(=O)(=O)NC2(C(=O)NC3C4CC5CC3CC(C(N)=O)(C5)C4)CC2)c(Cl)cc1Cl (stereo not shown) [Example 43, E-4-[1-(2,4-dichloro-5-methyl-benzenesulfonylamino)cyclopropanecarboxamido]-adamantan-1-carboxylic acid amide]
IC50 (11β-HSD1): 29.7 nM

NC(=O)C12CC3CC(C1)C(NC(=O)C1(CNC(=O)N4CCCc5ccccc54)CC1)C(C3)C2 (stereo not shown) [Example 141, E-3,4-dihydro-2H-quinolin-1-carboxylic acid[1-(5-carbamoyl-adamantan-2-ylcarbamoyl)-cyclopropylmethyl]-amide]
IC50 (11β-HSD1): 52.5 nM

NC(=O)CCC12CC3CC(C1)C(NC(=O)C1(CNS(=O)(=O)c4ccccc4F)CC1)C(C3)C2 (stereo not shown) [Example 34, E-N-(5-(3-amino-3-oxopropyl)adamantan-2-yl)-1-((2-fluoro-benzenesulfonylamino)methyl)cyclopropanecarboxamide]
IC50 (11β-HSD1): 29.9 nM

Cc1nc(C)c(S(=O)(=O)Nc2cccc(C(=O)NC3C4CC5CC3CC(C(N)=O)(C5)C4)c2)s1 (stereo not shown) [Example 107]
IC50 (11β-HSD1): 60.3 nM

NC(=O)C12CC3CC(C1)C(NC(=O)C1(NS(=O)(=O)c4ccc(F)cc4F)CC1)C(C3)C2 (stereo not shown) [Example 44]
IC50 (11β-HSD1): 79.1 nM

Cc1cc(S(=O)(=O)NCC2(C(=O)NC3C4CC5CC3CC(C(N)=O)(C5)C4)CC2)c(Cl)cc1Cl (stereo not shown) [Example 14, E-4-[1-((2,4-dichloro-5-methyl-benzenesulfonylamino)methyl)cyclopropanecarboxamido]-adamantan-1-carboxylic acid amide]
IC50 (11β-HSD1): 13.3 nM

NC(=O)C12CC3CC(C1)C(NC(=O)C1(CNS(=O)(=O)c4ccc(F)c(F)c4)CC1)C(C3)C2 (stereo not shown) [Example 21, E-4-[1-((3,4-difluoro-benzenesulfonylamino)methyl)cyclopropanecarboxamido]-adamantan-1-carboxylic acid amide]
IC50 (11β-HSD1): 30.8 nM

NC(=O)C12CC3CC(C1)C(NC(=O)c1cccc(NS(=O)(=O)c4ccco4)c1)C(C3)C2 (stereo not shown) [Example 103, E-4-[3-(furan-2-sulfonylamino)-benzamido]-adamantan-1-carboxylic acid amide]
IC50 (11β-HSD1): 23.8 nM

Cn1ccc2cc(S(=O)(=O)NCC3(C(=O)NC4C5CC6CC4CC(C(N)=O)(C6)C5)CC3)ccc21 (stereo not shown) [Example 26, E-4-[1-((1-methyl-1H-indole-5-sulfonylamino)methyl)cyclopropanecarboxamido]-adamantan-1-carboxylic acid amide]
IC50 (11β-HSD1): 1.2 nM

NC(=O)C12CC3CC(C1)C(NC(=O)C1(CNC(=O)c4ccc(F)c(F)c4)CC1)C(C3)C2 (stereo not shown) [Example 25]
IC50 (11β-HSD1): 9.6 nM

NC(=O)C12CC3CC(C1)C(NC(=O)C1(CNS(=O)(=O)c4cccc(Cl)c4)CC1)C(C3)C2 (stereo not shown) [Example 7, E-4-[1-((3-chloro-benzenesulfonylamino)methyl)cyclopropanecarboxamido]-adamantan-1-carboxylic acid amide]
IC50 (11β-HSD1): 2.6 nM

NC(=O)C12CC3CC(C1)C(NC(=O)c1cccc([N-]S(=O)(=O)c4cccc(Cl)c4F)c1)C(C3)C2.[Na+] (stereo not shown) [Example 113, E-sodium[3-((5-carbamoyladamantan-2-yl)carbamoyl)phenyl]-2-fluoro-3-chloro-benzenesulfonylamide]
IC50 (11β-HSD1): 2.7 nM
levels of plasma glucose and plasma insulin (KKAy mice): significantly reduced
Plasma glucose lowering effect (KKAy mice; 100 mg/kg): 28%
Plasma insulin lowering effect (KKAy mice; 100 mg/kg): 60%

CCN(CC1(C(=O)NC2C3CC4CC2CC(C(N)=O)(C4)C3)CC1)S(=O)(=O)c1ccccc1F (stereo not shown) [Example 32, E-4-[1-((N-ethyl-fluoro-benzenesulfonylamino)methyl)cyclopropanecarboxamido]-adamantan-1-carboxylic acid amide]
IC50 (11β-HSD1): 1.4 nM

Reference: US9464044B2, “Compound having ability to inhibit 11Beta-HSD1 enzyme or pharmaceutically acceptable salt thereof, method for producing same, and pharmaceutical composition containing same as active ingredient” (AHN-GOOK PHARMACEUTICAL CO., LTD., priority 2012, dated 2016)
